One test concerns HIV-1IIIB. As to the kind of experiment: HIV-1 antiviral assay in CEM-SS cells.
The test system of test [1] is Primary Human endothelial cells (HUVEC). Put plainly: Endothelial cell migration assay. Format: cell-based. Conditions: 10 micrograms per ml; 22 hours. Here is the method: Thereafter, designated concentration of testing peptides—10 micrograms per ml—was added in duplicate wells.
Another test deals with HUVEC. Put plainly: Endothelial tube formation assay. Conditions: 10 micrograms per ml; 20 hours. The class given is cell-based, human. The source says: Positive control was vehicle only.
The subject of a further test is HCMV strain AD169. As to the kind of experiment: HCMV plaque formation assay in MRC-5 cells. Format: cell-based. Conditions: for inhibition of HCMV plaque formation as compared to the virus control experiment: 10 micrograms per ml, 7-10 days.
For test [2], the system named is hepatitis B virus (HBV) ayw strain. As to the kind of experiment: HBV assay in HepG2-2.2.15 cells (TaqMan PCR of secreted HBV DNA). Conditions: 10 micrograms per ml; six days. Format: cell-based. (In general: Quantitative PCR measures a nucleic acid by following its amplification.)
Another test relates to murine spleen cells. Put plainly: Th1/Th2 cytokine profiling assay. Format: cell-based, Balb/c mice. Conditions: 10 micrograms per ml; Ovalbumin restimulation, 72 hours; combination 0.95:1.05 mole.
The test system of another test is Pseudomonas aeruginosa. Put plainly: Pseudomonas aeruginosa assay. The class given is cell-based. Conditions: 10 micrograms per ml; 5×10^5 CFU/mL; combination 0.95:1.05 mole and all other molar ratios from 1:100 to 100:1.

Where no end group is shown, it is not given here.

Regarding `CC(C)(C)NC(=O)[C@@H]1CN(Cc2cccnc2)CCN1C[C@@H](O)C[C@@H](Cc1ccccc1)C(=O)N[C@H]1c2ccccc2C[C@H]1O` [indinavir], the “antiviral activity of positive control compounds (HIV-1)” value in the test with HIV-1IIIB is recorded as “expected levels of antiviral activity”.
Regarding “Tyr-Val-Lys-Arg-Val-Lys-OH (YVKRVK-OH) [Peptide 1]”, in test [1], the “inhibition of the migration of human endothelial cells” value is reported as 8%. For the same compound, the “inhibition of the tube formation of human endothelial cells” value in the test with HUVEC stood at 21%. Further, the “inhibition of HCMV plaque formation as compared to the virus control experiment” value in the test with HCMV strain AD169 is reported as “did not inhibit”. For the same compound, the “inhibition of HBV replication as compared to the virus control infection” value in test [2] is on record as “did not inhibit”. For the same compound, in the test on murine spleen cells, the “change of the production of IFN-γ” value is given as “did not significantly change”, the “change of the production of TNF-alpha” value was “did not significantly change”, the “decrease of the production of IL-2” value worked out at 41.9% and the “decrease of the production of IL-4” value was found to be 58.2%. The “decrease of the production of IL-5” value in the test with murine spleen cells was 37.4%. Moreover, the “inhibition of the growth of Pseudomonas aeruginosa” value with Pseudomonas aeruginosa is reported as 100%.
With `Cc1cn([C@H]2C[C@H](N=[N+]=[N-])[C@@H](CO)O2)c(=O)[nH]c1=O` [AZT], in the test on HIV-1IIIB, the “antiviral activity of positive control compounds (HIV-1)” value was “expected levels of antiviral activity”.
As for `Nc1nc(O)c2ncn(COC(CO)CO)c2n1` [Ganciclovir, reference compound], the “antiviral activity of positive control compound (HCMV)” value in the test on HCMV strain AD169 (positive control compound) was “expected levels of antiviral activity”.
As to Pro-Leu-Gly-NH2 [Peptide 2], the “induction of the migration of endothelial cells” value in test [1] is recorded as 8%. The “inhibition of the tube formation of human endothelial cells” value with HUVEC came to 16%. Further, the “inhibition of HCMV plaque formation as compared to the virus control experiment” value in the test with HCMV strain AD169 is “did not inhibit”. Besides, the “inhibition of HBV replication as compared to the virus control infection” value in test [2] was found to be 10.9%. Further, in the test on murine spleen cells, the “change of the production of IFN-γ” value is on record as “did not significantly change”, the “change of the production of TNF-alpha” value was “did not significantly change”, the “decrease of the production of IL-2” value turned out to be 100% and the “decrease of the production of IL-4” value was determined as 100%. Also, the “decrease of the production of IL-5” value with murine spleen cells came to 42.3%. In addition, in the test on Pseudomonas aeruginosa, the “inhibition of the growth of Pseudomonas aeruginosa” value amounted to 100%.

(Values after US20100204153A1, “USE OF BAND 3 PROTEIN (824-829) AND/OR MELANOCYTE-STIMULATING HORMONE RELEASE-INHIBITING FACTOR AS A THERAPEUTIC AGENT IN THE TREATMENT OF PSEUDOMONAS AERUGINOSA INFECTION” (priority 2007, published 2010).)
